Test results: US7612089B2, “Tetrahydroisoquinolines as factor Xa inhibitors” (Portola Pharmaceuticals, Inc., priority 2004, dated 2009)

Target: T1, human plasma protein factor Xa (Homo sapiens, UniProt P00742)
T1 construct: The human plasma protein factor Xa was purchased; purchased Haematologic Technologies (Essex Junction, Vt.); host or cells: human plasma
Test: Factor Xa IC50 determination (cleavage of paranitroanilide substrate S-2765)
Assay type: biochemical
Settings: fXa 1 nM, S2765 100 μM, Tris buffered saline pH 7.4, room temperature
Text: This example illustrates methods for evaluating the compounds of the invention, along with results obtained for such assays. The in vitro and in vivo Factor Xa isoform activities of the inventive compounds can be determined by various procedures known in the art, such as a test for their ability to inhibit the activity of the Factor Xa isoform. […] The IC50 value is the concentration (in nM) of the compound required to provide 50% inhibition of Factor Xa isoform.
An in vitro assay for detecting and measuring inhibition activity against Factor Xa is as follows:
IC50 and Ki Determinations:
The substrate S-2765 (Z-D-Arg-Gly-Arg-pNA.HCl) was obtained from Diapharma (West Chester, Ohio).
The human plasma protein factor Xa was purchased from Haematologic Technologies (Essex Junction, Vt.).
All assays, which are performed in 96-well microtiter plates, measure proteolytic activity of the enzyme (factor Xa) by following cleavage of paranitroanilide substrate. The assay buffer used for proteolytic assays was Tris buffered saline (20 mM Tris, 150 mM NaCl, 5 mM CaCl2, 0.1% Bovine serum albumin (BSA), 5% Dimethly Sulfoxide (DMSO) pH 7.4). In a 96-well microtiter plate, inhibitor was serially diluted to give a range of concentrations from 0.01 nM to 10 μM (final). Duplicate sets of wells were assayed and control wells without inhibitor were included. Enzyme was added to each well, (fXa concentration=1 nM), the plate was shaken for 5 seconds and then incubated for 5 minutes at room temperature. S2765 was added (100 μM final) and the plate was shaken for 5 seconds (final liquid volume in each well was 200 μl). The degree of substrate hydrolysis was measured at 405 nm on a Thermomax plate reader (Molecular Devices, Sunnyvale, Calif.) for 2 minutes. The initial velocities (mOD/min), for each range of inhibitor concentrations, were fitted to a four parameter equation using Softmax data analysis software. The parameter C, derived from the resulting curve-fit, corresponded to the concentration for half maximal inhibition (IC50).

T1 sequence (P00742 235-488 limits assumed): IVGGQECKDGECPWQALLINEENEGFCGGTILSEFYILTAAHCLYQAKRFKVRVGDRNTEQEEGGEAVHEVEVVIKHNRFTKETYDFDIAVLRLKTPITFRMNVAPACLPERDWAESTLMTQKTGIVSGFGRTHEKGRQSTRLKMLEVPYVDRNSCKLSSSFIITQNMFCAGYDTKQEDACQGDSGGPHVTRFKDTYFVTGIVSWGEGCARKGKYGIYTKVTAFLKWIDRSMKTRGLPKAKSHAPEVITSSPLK
T1 sequence (P00742 41-179 partner limits assumed): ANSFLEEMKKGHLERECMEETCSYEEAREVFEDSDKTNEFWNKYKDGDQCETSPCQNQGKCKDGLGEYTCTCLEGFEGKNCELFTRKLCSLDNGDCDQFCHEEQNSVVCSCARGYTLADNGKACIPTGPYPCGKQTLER

| Compound | IC50 [nM] |
| --- | --- |
| CN1CCN=C1c1ccc(NC(=O)[C@H]2Cc3ccccc3CN2C(=O)Nc2ccc(Cl)cc2)cc1 [3(R), (3R)-N-[4-(1-methyl-4,5-dihydro-1H-imidazol-2-yl)phenyl]-2N-(4-chlorophenylaminocarbonyl)-1,2,3,4-tetrahydroisoquinoline-3-carboxamide] | ≤ 100 |
| CN1CCN=C1c1ccc(NC(=O)[C@@H]2Cc3ccccc3CN2C(=O)Nc2ccc(Cl)cc2)cc1 [3(S), (3S)-N-[4-(1-methyl-4,5-dihydro-1H-imidazol-2-yl)phenyl]-2N-(4-chlorophenylaminocarbonyl)-1,2,3,4-tetrahydroisoquinoline-3-carboxamide] | ≤ 100 |
| CN1CCN=C1c1ccc(NC(=O)C2Cc3ccccc3CN2C(=O)Nc2ccc(Cl)cc2)cc1 (stereo not drawn) [Example 1, N-[4-(1-methyl-4,5-dihydro-1H-imidazol-2-yl)phenyl]-2N-(4-chlorophenylaminocarbonyl)-1,2,3,4-tetrahydroisoquinoline-3-carboxamide] | ≤ 100 |
| O=C(Nc1ccc(-c2cccc[n+]2[O-])cc1)C1Cc2ccccc2CN1C(=O)Nc1ccc(Cl)cc1 (stereo not drawn) [Example 2, N-[4-(1N-oxo-pyridin-2-yl)phenyl]-2N-(4-chlorophenylaminocarbonyl)-1,2,3,4-tetrahydroisoquinoline-3-carboxamide] | ≤ 100 |
| N=C(c1ccc(NC(=O)C2Cc3ccccc3CN2C(=O)Nc2ccc(Cl)cc2)cc1)N1CCCC1 (stereo not drawn) [Example 4, N-[4-(pyrrolidinylimino)phenyl]-2N-(4-chlorophenylaminocarbonyl)-1,2,3,4-tetrahydroisoquinoline-3-carboxamide] | ≤ 100 |
| CN(C)C(=N)c1ccc(NC(=O)C2Cc3ccccc3CN2C(=O)Nc2ccc(Cl)cc2)cc1 (stereo not drawn) [Example 5, N-[4-(dimethylaminoimino)phenyl]-2N-(4-chlorophenylaminocarbonyl)-1,2,3,4-tetrahydroisoquinoline-3-carboxamide] | ≤ 100 |
| CN(C)C(=N)c1cccc(CNC(=O)C2Cc3ccccc3CN2C(=O)Nc2ccc(Cl)cc2)c1 (stereo not drawn) [Example 6, N-[3-(dimethylaminoimino)benzyl]-2N-(4-chlorophenylaminocarbonyl)-1,2,3,4-tetrahydroisoquinoline-3-carboxamide] | ≥ 500 |
| CN1CCN=C1c1cccc(CNC(=O)C2Cc3ccccc3CN2C(=O)Nc2ccc(Cl)cc2)c1 (stereo not drawn) [Example 7, N-[3-(1-methyl-4,5-dihydro-1H-imidazol-2-yl)benzyl]-2N-(4-chlorophenylaminocarbonyl)-1,2,3,4-tetrahydroisoquinoline-3-carboxamide] | ≥ 500 |
| O=C(Nc1ccc(C(=O)N2CCCC2)cc1)C1Cc2ccccc2CN1C(=O)Nc1ccc(Cl)cc1 (stereo not drawn) [Example 8, N-[4-(pyrrolidinylcarbonyl)phenyl]-2N-(4-chlorophenylaminocarbonyl)-1,2,3,4-tetrahydroisoquinoline-3-carboxamide] | ≤ 100 |
| O=C(NCC1CCN(c2ccncc2)CC1)C1Cc2ccccc2CN1C(=O)Nc1ccc(Cl)cc1 (stereo not drawn) [Example 9, N-[1-(pyridin-4-yl)piperidin-4-yl]methyl-2N-(4-chlorophenylaminocarbonyl)-1,2,3,4-tetrahydroisoquinoline-3-carboxamide] | 100 to 500 |
| CN1CCCN(c2ccc(NC(=O)C3Cc4ccccc4CN3C(=O)Nc3ccc(Cl)cc3)cc2)CC1 (stereo not drawn) [Example 10, N-[4-(4-methyl-homopiperazinyl)]phenyl-2N-(4-chlorophenylaminocarbonyl)-1,2,3,4-tetrahydroisoquinoline-3-carboxamide] | ≤ 100 |
| CN1CCC(N2CCN(C(=O)C3Cc4ccccc4CN3C(=O)Nc3ccc(Cl)cc3)CC2)CC1 (stereo not drawn) [Example 11, 4-(1-methylpiperidin-4-yl)piperazinyl 2N-(4-chlorophenylaminocarbonyl)-1,2,3,4-tetrahydroisoquinoline-3-carboxamide] | ≤ 100 |
| CC(C)N1CCC(NC(=O)C2Cc3ccccc3CN2C(=O)Nc2ccc(Cl)cc2)CC1 (stereo not drawn) [Example 12, N-(1-isopropylpiperidin-4-yl)2N-(4-chlorophenylaminocarbonyl)-1,2,3,4-tetrahydroisoquinoline-3-carboxamide] | ≥ 500 |
| CN(C)Cc1nccn1-c1ccc(NC(=O)C2Cc3ccccc3CN2C(=O)Nc2ccc(Cl)cc2)c(F)c1 (stereo not drawn) [Example 13, N-[4-(2-dimethylaminomethyl-imidazol-1-yl)-2-fluorophenyl]-2N-(4-chlorophenylaminocarbonyl)-1,2,3,4-tetrahydroisoquinoline-3-carboxamide] | ≤ 100 |
| O=C(Nc1ccc(N2CCOCC2=O)cc1)C1Cc2ccccc2CN1C(=O)Nc1ccc(Cl)cc1 (stereo not drawn) [Example 14, N-[4-(3-oxo-morpholin-4-yl)phenyl]-2N-(4-chlorophenylaminocarbonyl)-1,2,3,4-tetrahydroisoquinoline-3-carboxamide] | ≤ 100 |
| O=C(Nc1ccc(C(=O)N2CCSC2)cc1)C1Cc2ccccc2CN1C(=O)Nc1ccc(Cl)cc1 (stereo not drawn) [Example 15, N-[4-(3-thiazolidinylcarbonyl)phenyl]-2N-(4-chlorophenylaminocarbonyl)-1,2,3,4-tetrahydroisoquinoline-3-carboxamide] | ≤ 100 |
| O=C(Nc1ccc(C(=O)N2CCOC2)cc1)C1Cc2ccccc2CN1C(=O)Nc1ccc(Cl)cc1 (stereo not drawn) [Example 16, N-[4-(3-oxazolidinylcarbonyl)phenyl]-2N-(4-chlorophenylaminocarbonyl)-1,2,3,4-tetrahydroisoquinoline-3-carboxamide] | ≤ 100 |
| CN(c1ccncc1)c1ccc(NC(=O)C2Cc3ccccc3CN2C(=O)Nc2ccc(Cl)cc2)cc1 (stereo not drawn) [Example 17, N-[4-(N-methyl-N-pyridin-4-yl-amino)phenyl]-2N-(4-chlorophenylaminocarbonyl)-1,2,3,4-tetrahydroisoquinoline-3-carboxamide] | ≤ 100 |
| Cc1cccc2c1CC(C(=O)Nc1ccc(C3=NCCN3C)cc1)N(C(=O)Nc1ccc(Cl)cc1)C2 (stereo not drawn) [Example 18, N-[4-(1-methyl-4,5-dihydro-1H-imidazol-2-yl)phenyl]-2N-(4-chlorophenylaminocarbonyl)-5-methyl-1,2,3,4-tetrahydroisoquinoline-3-carboxamide] | ≤ 100 |
| Cc1cccc2c1CC(C(=O)Nc1ccc(C(=N)N3CCCC3)cc1)N(C(=O)Nc1ccc(Cl)cc1)C2 (stereo not drawn) [Example 19, N-[4-(pyrrolidinylimino)phenyl]-2N-(4-chlorophenylaminocarbonyl)-5-methyl-1,2,3,4-tetrahydroisoquinoline-3-carboxamide] | ≤ 100 |
| Cc1cccc2c1CC(C(=O)Nc1ccc(C(=N)N(C)C)cc1)N(C(=O)Nc1ccc(Cl)cc1)C2 (stereo not drawn) [Example 20, N-[4-(dimethylaminoimino)phenyl]-2N-(4-chlorophenylaminocarbonyl)-5-methyl-1,2,3,4-tetrahydroisoquinoline-3-carboxamide] | ≤ 100 |
| COc1cc2c(cc1OC)CN(C(=O)Nc1ccc(Cl)cc1)[C@H](C(=O)Nc1ccc(C3=NCCN3C)cc1)C2 [Example 21, (3S)-N-[4-(1-methyl-4,5-dihydro-1H-imidazol-2-yl)phenyl]-2N-(4-chlorophenylaminocarbonyl)-6,7-dimethoxy-1,2,3,4-tetrahydroisoquinoline-3-carboxamide] | ≥ 500 |
| COc1cc2c(cc1OC)CN(C(=O)Nc1ccc(Cl)cc1)[C@H](C(=O)Nc1ccc(C(=N)N3CCCC3)cc1)C2 [Example 22, (3S)-N-[4-(pyrrolidinylimino)phenyl]-2N-(4-chlorophenylaminocarbonyl)-6,7-dimethoxy-1,2,3,4-tetrahydroisoquinoline-3-carboxamide] | 100 to 500 |
| COc1cc2c(cc1OC)CN(C(=O)Nc1ccc(Cl)cc1)[C@H](C(=O)Nc1ccc(C(=N)N(C)C)cc1)C2 [Example 23, (3S)-N-[4-(dimethylaminoimino)phenyl]-2N-(4-chlorophenylaminocarbonyl)-6,7-diemthoxy-1,2,3,4-tetrahydroisoquinoline-3-carboxamide] | ≥ 500 |
| CN1CCN=C1c1ccc(NC(=O)C2Cc3cc(O)ccc3CN2C(=O)Nc2ccc(Cl)cc2)cc1 (stereo not drawn) [Example 24, N-[4-(1-methyl-4,5-dihydro-1H-imidazol-2-yl)phenyl]-2N-(4-chlorophenylaminocarbonyl)-6-hydroxy-1,2,3,4-tetrahydroisoquinoline-3-carboxamide] | ≤ 100 |
| CN1CCN=C1c1ccc(NC(=O)C2Cc3sccc3CN2C(=O)Nc2ccc(Cl)cc2)cc1 (stereo not drawn) [Example 25, N-[4-(1-methyl-4,5-dihydro-1H-imidazol-2-yl)phenyl]-5N-(4-chlorophenylaminocarbonyl)-4,5,6,7-tetrahydro-thieno[3,2-c]pyridine-6-carboxamide] | ≤ 100 |
| CN(C)C(=N)c1ccc(NC(=O)C2Cc3sccc3CN2C(=O)Nc2ccc(Cl)cc2)cc1 (stereo not drawn) [Example 26, N-[4-(dimethylaminoimino)phenyl]-5N-(4-chlorophenylaminocarbonyl)-4,5,6,7-tetrahydro-thieno[3,2-c]pyridine-6-carboxamide] | ≤ 100 |
